Earlier results on four compounds are cited in patent US10950327B2, “Methods and tools for detecting, diagnosing, predicting, prognosticating, or treating a neurobehavioral phenotype in a subject” (BlackThorn Therapeutics, Inc., priority 2017, dated 2021).

The conditions of data set [1]: in vivo.
The next data set addresses 5HT6 receptors (Homo sapiens, UniProt P50406).
The target in data set [2] is muscarinic M3 (CHRM3) receptor (Homo sapiens, UniProt P20309).
The test system of data set [3] is mean functional connectivity (Global Brain Connectivity, GBC). The note with it: healthy human subjects.
Data set [4] deals with patients with schizophrenia.

muscarinic M3 (CHRM3) receptor, sequence (P20309 whole entry): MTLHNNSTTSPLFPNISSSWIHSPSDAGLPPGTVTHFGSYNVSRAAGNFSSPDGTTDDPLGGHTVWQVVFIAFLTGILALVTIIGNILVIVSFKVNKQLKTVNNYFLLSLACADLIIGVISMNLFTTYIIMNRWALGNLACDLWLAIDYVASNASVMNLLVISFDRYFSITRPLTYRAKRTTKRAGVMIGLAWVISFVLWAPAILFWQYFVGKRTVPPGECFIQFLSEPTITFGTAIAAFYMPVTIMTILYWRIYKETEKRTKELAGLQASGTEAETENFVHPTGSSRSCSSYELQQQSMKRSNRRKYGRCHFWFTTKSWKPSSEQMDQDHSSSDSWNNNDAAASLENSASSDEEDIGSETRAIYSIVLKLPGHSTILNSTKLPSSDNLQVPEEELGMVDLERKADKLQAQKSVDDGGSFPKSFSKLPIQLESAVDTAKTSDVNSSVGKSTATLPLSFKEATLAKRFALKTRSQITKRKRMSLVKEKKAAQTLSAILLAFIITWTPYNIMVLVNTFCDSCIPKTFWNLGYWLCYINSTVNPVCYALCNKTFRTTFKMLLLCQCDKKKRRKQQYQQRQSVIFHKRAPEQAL
5HT6 receptors, sequence (P50406 whole entry): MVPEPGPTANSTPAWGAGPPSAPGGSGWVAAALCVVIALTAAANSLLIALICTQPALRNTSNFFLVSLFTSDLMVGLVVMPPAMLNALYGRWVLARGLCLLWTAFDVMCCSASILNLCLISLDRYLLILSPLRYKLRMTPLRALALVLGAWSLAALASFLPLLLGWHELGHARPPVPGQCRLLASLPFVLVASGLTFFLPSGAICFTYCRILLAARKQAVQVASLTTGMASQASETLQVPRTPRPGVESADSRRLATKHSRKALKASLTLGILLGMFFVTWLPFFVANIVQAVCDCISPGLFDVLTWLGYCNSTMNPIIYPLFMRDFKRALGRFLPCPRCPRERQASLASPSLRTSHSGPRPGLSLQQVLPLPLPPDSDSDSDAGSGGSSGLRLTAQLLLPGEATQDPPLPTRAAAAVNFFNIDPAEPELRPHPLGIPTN

With `O=C1Nc2ccc(Cl)cc2[C@@](C#CC2CC2)(C(F)(F)F)O1` [efavirenz], the “suppression of HIV-1” value with HIV-1 was “effective in suppressing HIV-1”. Also, the “risk of neuropsychiatric symptoms” value in data set [1] is on record as “increase the risk of neuropsychiatric symptoms”. Also, the “activity at 5HT6 receptors” value at 5HT6 receptors is “inverse agonist activity”. The “activity at muscarinic M3 (CHRM3) receptor” value in data set [2] was “antagonist activity”.

Consider `CCN(CC)C(=O)[C@@H]1C=C2c3cccc4[nH]cc(c34)C[C@H]2N(C)C1` [LSD, lysergic acid diethylamide], for which, in data set [3] (acute administration, fMRI-derived cortical map), the “change in mean functional connectivity (Global Brain Connectivity, GBC)” value is “large increase in occipital visual cortex”.

`O=C(c1ccc(F)cc1)C1CCN(CCn2c(=O)[nH]c3ccccc3c2=O)CC1` [ketanserin]: in data set [3] (pre-administration before LSD), the “effect on LSD-induced neural change and behavioral effects” value is recorded as “blocked”.

With `Cc1nc2cccc(C(F)(F)F)c2c(=O)n1-c1ccc(OCCCN2CCCC2)cc1` [MK-0249], in data set [4], the “improvement of cognitive deficits” value is “failed to improve cognitive deficits”.
